Data as given in PMC6657668, “Porcine Beta-Defensin 2 Provides Protection Against Bacterial Infection by a Direct Bactericidal Activity and Alleviates Inflammation via Interference With the TLR4/NF-κB Pathway” (Frontiers in Immunology, 2019).
Like-named read-outs stand apart in the source and are kept apart here. Where no end group is shown, it is not given here.

Columns and labels:
[1] = tested on: RAW 264.7 cells; assay: Cytokine levels of RAW 264.7 cells after treatment with LPS (ELISA), with or without pathway inhibitor; format: cell-based, mouse; conditions: 1 h pre-treatment, LPS 1 μg/ml, 16 h, n = 6
Protocol: RAW 264.7 cells and RAW 264.7 cells stably expressing PBD-2 were pre-treated with S. Typhimurium at MOI = 10:1 for 1 h or with LPS (1 μg/ml) for 16 h, washed with PBS twice and incubated with RPMI 1640 that contained PBS or PBD-2 (10 μg/mL) for 16 h. RAW 264.7 cells stably expressing PBD-2 were maintained in RPMI 1640 that contained PBS for 16 h (n = 6 for each group). The expression levels of proinflammatory cytokines in the cell culture supernatant were determined through ELISA in accordance with the manufacturer's instruction.
In the inhibition assay, RAW 264.7 cells were pre-treated with 4 μg/ml NF-κB inhibitor (Celastrol, # ant-cls, InvivoGen®, San Diego, CA, USA) or 1 μg/ml TLR4 inhibitor (CLI-095, # tlrl-cli95, InvivoGen®, San Diego, CA, USA) for 1 h. Subsequently, RAW 264.7 cells were treated with LPS (1 μg/ml) alone or together with PBD-2 (10 μg/mL) for 16 h (n = 6 each group). RAW 264.7 cells treated with PBS were used as control. The levels of the cytokines in the supernatant of the cells were detected through ELISA.

[2] = tested on: NF-κB; assay: NF-κB promoter activity, luciferase reporter assay in RAW 264.7 cells; format: cell-based, mouse; conditions: CLI-095 1 μg/ml, 1 h pre-treatment; LPS 1 μg/ml, 24 h; n = 6
Protocol: A luciferase reporter assay was used to detect the promoter activity of NF-κB. RAW 264.7 cells were seeded in a 24-well plate for 24 h and then cotransfected with 800 ng/well of the NF-κB reporter plasmid (pGL3-Basic) and 20 ng/well of pLR-TK. WT […] luciferase (Rluc) served as the reporter gene control vector. […] In the inhibition assay, the cells were pre-treated with 1 μg/ml TLR4 inhibitor for 1 h and treated with LPS (1 μg/ml) alone or together with PBD-2 (10 μg/mL) for 24 h (n = 6 each group). Luciferase units were detected to show the promoter activity of NF-κB ([28]).

[3] = tested on: release of inflammatory cytokines; conditions: cited from earlier work
Excerpt: Bacterial drug resistance has become a global concern. Endeavors in search for antibiotic substitutes are desperately needed. Antimicrobial peptides (AMPs) are natural anti-infective agents identified in various species and implicated in innate immunity ([1]). […] AMPs not only have a direct bactericidal activity but also regulate immune and inflammatory responses ([3]). As bactericides, cationic AMPs exert bactericidal act ... || The colitis caused by S. Typhimurium mainly results from intestinal mucosal inflammation after the breakage of intestinal epithelial barrier by pathogens ([26]).

[4] = tested on: TLR3; conditions: TLR3 ligand poly (I:C); ref [6]; cited from earlier work
Excerpt: (§1) The mechanism of how AMPs modulate immune signaling pathways has yet to be fully understood. […] Instead, it interacted with TLR4. […] Therefore, th ...

[5] = cited from earlier work
Excerpt: as §1

[6] = tested on: Bordetella pertussis; conditions: pigs; ref [35]; cited from earlier work
Excerpt: (§2) The antibiotic resistance of pathogenic bacteria has become a global threat ([30]). Defensins are natural peptides secreted by many species and implicated in resisting bacterial infection ([31]). PBD-2 is one of the defensins expressed in pigs. […] The invasion of S. Typhimurium can increase the expression of PBD-2 in porcine epithelial cells ([32]). […] PBD-2 also improves the growth perf ...

[7] = tested on: intestinal epithelial cells; conditions: cells transfected with genes encoding hBD-2 and hBD-3, infected with S. Typhimurium; vs untransfected; ref [44]; cited from earlier work
Excerpt: The colitis caused by S. Typhimurium mainly results from intestinal mucosal inflammation after the breakage of intestinal epithelial barrier by pathogens ([26]).

[8] = tested on: TLR2; conditions: ref [50]; cited from earlier work
Excerpt: as §1

[9] = tested on: TLR1; conditions: ref [50]; cited from earlier work
Excerpt: as §1

[10] = tested on: signaling pathways downstream of TLR4; conditions: MyD88-dependent and MyD88-independent pathways; ref [50]; cited from earlier work
Excerpt: as §1

[11] = cited from earlier work; remark: listed apart in the source
Excerpt: as §2

[12] = target: T1, TLR4, purified recombinant protein (Cloud-clone # RPA753Mu01) (UniProt Q9QUK6 26-638); assay: ITC; Nano-ITC, 25°C; PBD-2 in the syringe (0.215 mM), TLR4 in the calorimeter cell (0.016 to 0.050 mM); control: PBD-2 into PBS; conditions: both partners purified
T1 construct: Toll-like receptor 4 (TLR4), bought recombinant protein; the vendor's data sheet is needed; also called purified TLR4; source: bought: Cloud-clone (# RPA753Mu01)
T1 sequence (looked up): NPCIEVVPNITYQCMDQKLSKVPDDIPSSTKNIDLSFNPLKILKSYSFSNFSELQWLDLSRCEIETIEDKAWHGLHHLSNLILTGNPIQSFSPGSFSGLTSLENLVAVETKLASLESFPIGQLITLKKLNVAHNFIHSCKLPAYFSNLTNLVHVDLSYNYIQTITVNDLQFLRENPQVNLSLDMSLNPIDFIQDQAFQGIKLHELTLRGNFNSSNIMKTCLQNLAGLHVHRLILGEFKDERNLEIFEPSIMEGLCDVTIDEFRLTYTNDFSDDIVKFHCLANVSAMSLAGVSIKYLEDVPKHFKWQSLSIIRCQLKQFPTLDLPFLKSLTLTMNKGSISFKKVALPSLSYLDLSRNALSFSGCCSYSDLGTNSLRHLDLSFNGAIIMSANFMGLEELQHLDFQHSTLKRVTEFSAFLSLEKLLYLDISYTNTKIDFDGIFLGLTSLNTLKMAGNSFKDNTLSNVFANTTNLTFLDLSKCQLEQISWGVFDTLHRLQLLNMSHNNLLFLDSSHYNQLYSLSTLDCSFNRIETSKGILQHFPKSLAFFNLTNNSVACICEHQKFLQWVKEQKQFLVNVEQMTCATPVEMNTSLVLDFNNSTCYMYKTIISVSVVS

## CC1=C(O)C(=O)C=C2C1=CC=C1[C@@]2(C)CC[C@@]2(C)[C@@H]3C[C@](C)(C(=O)O)CC[C@]3(C)CC[C@]12C [NF-κB inhibitor, Celastrol, reference compound]
[1]; Celastrol 4 μg/ml
  secretion of IL-1β triggered by LPS: significantly reduced the secretion of TNF-α, IL-6, and IL-1β triggered by LPS
  secretion of IL-6 triggered by LPS: significantly reduced the secretion of TNF-α, IL-6, and IL-1β triggered by LPS
  secretion of TNF-α triggered by LPS: significantly reduced the secretion of TNF-α, IL-6, and IL-1β triggered by LPS

## CCOC(=O)C1=CCCC[C@H]1S(=O)(=O)Nc1ccc(F)cc1Cl [TLR4 inhibitor, reference compound]
[1]; CLI-095 1 μg/ml
  secretion of IL-1β triggered by LPS: significantly reduced the secretion of TNF-α, IL-6, and IL-1β triggered by LPS
  secretion of IL-6 triggered by LPS: significantly reduced the secretion of TNF-α, IL-6, and IL-1β triggered by LPS
  secretion of TNF-α triggered by LPS: significantly reduced the secretion of TNF-α, IL-6, and IL-1β triggered by LPS
[2]
  LPS-induced NF-κB promoter activity, TLR4 inhibitor: inhibited the LPS-induced promoter activity of NF-κB in RAW 264.7

## LL-37: human AMP (LLGDFFRKSKEKIGKEFKRIVQRIKDFLRNLVPRTES; Antibacterial peptide LL-37; UniProt P49913 134-170, looked up)
[3]; ref [5]
  release of inflammatory cytokines: suppress the release of inflammatory cytokines
[3]; ref [6]
  suppression of inflammation: can suppress inflammation by inhibiting specific inflammatory signaling pathways
[4]
  TLR3-dependent immune responses: TLR3-dependent immune responses are blocked by LL-37
[5]; ref [48]
  anti-endotoxin ability: exert anti-endotoxin abilities by either disrupting LPS or inhibiting the LPS-induced production of TNF-α

## PR39
[5]; ref [49]
  anti-endotoxin ability: exert anti-endotoxin abilities by either disrupting LPS or inhibiting the LPS-induced production of TNF-α

## Porcine beta-defensin 1: another defensin from pigs and homolog of human beta-defensin 2 (NIGNSVSCLRNKGVCMPGKCAPKMKQIGTCGMPQVKCCKRK; ends and bridges not checked; cysteine pairing not given here; UniProt O62697 24-64, looked up)
[6]
  protection against Bordetella pertussis infection: protects against Bordetella pertussis infection in pigs

## hBD3: human β-defensin 3 (GIINTLQKYYCRVRGGRCAVLSCLPKEEQIGKCSTRGRKCCRRKK; ends and bridges not checked; cysteine pairing not given here; UniProt P81534 23-67, looked up)
[7]
  expression level of proinflammatory cytokines: decreased expression level of proinflammatory cytokines
[3]; ref [7]
  suppression of inflammation: can suppress inflammation by inhibiting specific inflammatory signaling pathways
[3]; ref [43]
  TNF-α and IL-6 secretion: suppressing TNF-α and IL-6 secretion
[5]; ref [50]
  binding to LPS: does not bind to LPS
[8]
  interaction with TLR2: can interact with TLR1 and TLR2, leading to the activation of the MyD88-dependent pathway
[9]
  interaction with TLR1: can interact with TLR1 and TLR2, leading to the activation of the MyD88-dependent pathway
[10]
  LPS-induced inflammation: could inhibit the LPS-induced inflammation by repressing the signaling pathways downstream of TLR4

## hBD-1: β-defensin of human (DHYNCVSSGGQCLYSACPIFTKIQGTCYRGKAKCCK; ends and bridges not checked; cysteine pairing not given here; UniProt P60022 33-68, looked up)
[11]; ref [36]
  antibacterial effects in vivo: have antibacterial effects in vivo

## hBD-2: β-defensin of human (GIGDPVTCLKSGAICHPVFCPRRYKQIGTCGLPGTKCCKKP; ends and bridges not checked; cysteine pairing not given here; UniProt O15263 24-64, looked up)
[7]
  expression level of proinflammatory cytokines: decreased expression level of proinflammatory cytokines
[11]; ref [36]
  antibacterial effects in vivo: have antibacterial effects in vivo

## rMBD3: β-defensin 3 (rMBD3) of mice (KKINNPVSCLRKGGRCWNRCIGNTRQIGSCGVPFLKCCKRK; ends and bridges not checked; cysteine pairing not given here; UniProt Q9WTL0 23-63, looked up)
[11]; mice, ref [37]
  antibacterial effects in vivo: have antibacterial effects in vivo

B1: Porcine beta-defensin 2 (PBD-2), synthetic mature peptide (peptide)
peptide: DHYICAKKGGTCNFSPCPLFNRIEGTCYSGKAKCCIR
modifications: ends and bridges not checked; cysteine pairing not given here
notes: mature peptide of porcine beta-defensin 2 (PBD-2), pig; also called synthetic PBD-2; source: synthetic peptide (Neweast Biosciences, # 60001)
[12]
  Kd: 3.75 µM
